Test results: patent US11767305B2, “Advantageous benzofuran compositions for mental disorders or enhancement” (Tactogen Inc, priority 2020, dated 2023)
Entries after “also recorded” stand apart in the source; their conditions may differ. Read-outs that look alike come from different tables or passages of the source.

Key:
[1] = molecular target: Nicotinic Acetylcholine Receptor α4β2 (nAchRa4/b2) (Homo sapiens (Human), UniProt P17787+P43681); experiment: Nicotinic acetylcholine receptor α4β2 ion channel blocking assay; assay type: cell-based
Chain of Nicotinic Acetylcholine Receptor α4β2 (nAchRa4/b2) (P43681 29-627 limits assumed): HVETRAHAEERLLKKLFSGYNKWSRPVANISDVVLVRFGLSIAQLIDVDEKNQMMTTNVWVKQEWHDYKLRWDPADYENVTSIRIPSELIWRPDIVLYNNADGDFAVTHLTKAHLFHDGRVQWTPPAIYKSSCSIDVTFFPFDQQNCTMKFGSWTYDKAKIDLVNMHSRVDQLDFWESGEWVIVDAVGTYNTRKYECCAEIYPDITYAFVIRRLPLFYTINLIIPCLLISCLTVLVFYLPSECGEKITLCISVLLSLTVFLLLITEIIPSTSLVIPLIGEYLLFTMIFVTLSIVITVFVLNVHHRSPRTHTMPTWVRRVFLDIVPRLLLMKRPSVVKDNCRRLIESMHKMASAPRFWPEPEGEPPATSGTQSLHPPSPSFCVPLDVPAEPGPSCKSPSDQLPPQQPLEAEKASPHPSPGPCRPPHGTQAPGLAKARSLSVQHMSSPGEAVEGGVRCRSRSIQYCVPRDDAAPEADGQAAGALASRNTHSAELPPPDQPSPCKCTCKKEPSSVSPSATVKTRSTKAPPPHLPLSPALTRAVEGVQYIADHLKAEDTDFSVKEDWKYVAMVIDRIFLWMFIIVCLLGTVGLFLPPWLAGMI
Chain of Nicotinic Acetylcholine Receptor α4β2 (nAchRa4/b2) (P17787 26-502 limits assumed): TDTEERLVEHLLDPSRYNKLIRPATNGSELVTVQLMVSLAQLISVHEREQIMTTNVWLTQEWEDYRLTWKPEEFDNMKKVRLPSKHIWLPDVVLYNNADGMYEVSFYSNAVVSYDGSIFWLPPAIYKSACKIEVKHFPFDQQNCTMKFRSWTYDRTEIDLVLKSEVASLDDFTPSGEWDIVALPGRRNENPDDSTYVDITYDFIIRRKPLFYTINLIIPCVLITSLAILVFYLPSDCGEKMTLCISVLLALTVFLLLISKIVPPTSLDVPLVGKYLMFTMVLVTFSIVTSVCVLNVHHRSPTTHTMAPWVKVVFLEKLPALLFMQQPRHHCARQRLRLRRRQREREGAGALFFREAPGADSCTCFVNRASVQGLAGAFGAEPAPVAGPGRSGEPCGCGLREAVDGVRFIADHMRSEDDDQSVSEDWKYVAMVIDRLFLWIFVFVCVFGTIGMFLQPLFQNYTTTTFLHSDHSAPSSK
Protocol: Cell lines were expanded from freezer stocks according to standard procedures. Cells were seeded in a total volume of 20 μL into black-walled, clear-bottom, Poly-D-lysine coated 384-well microplates and incubated at 37° C. for the appropriate time prior to testing.
Assays were performed in 1×Dye Loading Buffer consisting of 1×Dye, and 2.5 mM freshly-prepared Probenecid when applicable.
Test compounds were assayed at 10 concentrations with the highest concentration either 30 or 10 μM and subsequent concentrations using a 0.33 dilution factor.
Prior to testing, cells were loaded with dye then incubated for 30-60 minutes at 37° C. For antagonist determination, cells were pre-incubated with sample. Dihydro-β-erythroidine was used as a positive control. Intermediate dilution of sample stocks was performed to generate 2-5×sample in assay buffer.
After dye loading, cells were moved from the incubator and 10-25 μL 2-5×sample was added to cells in the presence of EC80 agonist when appropriate. Cells were incubated for 30 minutes at room temperature in the dark to equilibrate plate temperature. Vehicle concentration was 1%.
Compound activity was measured on a FLIPRTetra(MDS) and analyzed using CBIS data analysis suite (ChemInnovation, CA). Percentage inhibition was calculated using the following formula: % Inhibition=100%×(1−(mean RLU of test sample−mean RLU of vehicle control)/(mean RLU of EC80 control−mean RLU of vehicle control)).

[2] = molecular target: human 5-HT transporter (hSERT) (Homo sapiens (Human), UniProt P31645); experiment: Human serotonin transporter  assay ([3H]imipramine radioligand, CHO cells); assay type: binding
Protocol: Benzofuran derivatives were evaluated for inhibiting the human 5-HT transporter (hSERT) as expressed in CHO cells using an antagonist radioligand assay (Tatsumi, M. et al. (1999), Eur. J Pharmacol., 368: 277-283). […] Test compounds were assayed in three trials at […], and 0.94868 μM.

[3] = molecular target: T1, serotonin (5-HT) transporter (SERT) (Rattus norvegicus (Rat), UniProt P31652); experiment: Rat synaptosome SERT [3H]5-HT release assay; settings: [3H]5-HT release via SERT EC50 (nM), 5 nM [3H]5-HT
[4] = molecular target: T1, serotonin (5-HT) transporter (SERT); experiment: Rat synaptosome SERT [3H]5-HT uptake inhibition assay; settings: Inhibition of [3H]5-HT Uptake at SERT IC50 (nM), 5 nM [3H]5-HT
[5] = molecular target: MAO-A (Homo sapiens (Human), UniProt P21397); experiment: MAO-A inhibition assay (kynuramine); assay type: biochemical
Chain of MAO-A (P21397 whole entry, looked up, species assumed): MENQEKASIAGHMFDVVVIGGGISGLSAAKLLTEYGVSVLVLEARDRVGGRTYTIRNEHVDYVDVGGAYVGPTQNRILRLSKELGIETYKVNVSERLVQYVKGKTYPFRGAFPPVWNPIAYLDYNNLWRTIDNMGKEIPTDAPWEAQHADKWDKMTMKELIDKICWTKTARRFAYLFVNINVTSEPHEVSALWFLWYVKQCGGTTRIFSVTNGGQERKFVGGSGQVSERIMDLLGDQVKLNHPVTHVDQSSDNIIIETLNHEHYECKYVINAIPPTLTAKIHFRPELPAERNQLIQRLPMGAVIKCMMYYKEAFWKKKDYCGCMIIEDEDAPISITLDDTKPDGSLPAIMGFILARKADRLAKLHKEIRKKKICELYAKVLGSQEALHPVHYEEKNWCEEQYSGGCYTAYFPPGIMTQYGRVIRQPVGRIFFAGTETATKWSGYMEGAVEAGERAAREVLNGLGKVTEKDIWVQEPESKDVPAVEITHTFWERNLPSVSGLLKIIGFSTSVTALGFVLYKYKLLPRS
Protocol: MAO-A and test compounds were preincubated at 37° C. for 15 minutes before substrate addition. Test compounds were assayed at 10 concentrations with the highest concentration either 30 or 10 μM and subsequent concentrations using a 0.33 dilution factor. The reaction was initiated by addition of kynuramine and incubated at 37° C. for 30 minutes. The reaction was terminated by addition of NaOH. The amount of 4-hydroquioline formed was determined through spectrofluorimetric readout with the emission detection at 380 nm and excitation wavelength 310 nm.

[6] = molecular target: DAT (Homo sapiens (Human), UniProt Q01959); experiment: hDAT release assay in CHO cells ([3H]dopamine)
[7] = molecular target: SERT (Homo sapiens (Human), UniProt P31645); experiment: hSERT release assay in CHO cells ([3H]serotonin)
[8] = molecular target: 5-HT1BR (Homo sapiens (Human), UniProt P28222); experiment: 5-HT1BR cAMP secondary messenger agonist assay (HitHunter, CHO-K1); assay type: cell-based
From the text: The 5-HT1BR cAMP secondary messenger agonist assay used a panel of CHO-K1 cell lines stably expressing non-tagged GPCRs that endogenously signal through cAMP. Hit Hunter® cAMP assays monitored the activation of a GPCR via Gi and Gs secondary messenger signaling in a homogenous, non-imaging assay format using DiscoverX Enzyme Fragment Complementation (EFC) with β-galactosidase as the functional endpoint.
The enzyme was split into two complementary portions: Enzyme Acceptor (EA) and Enzyme Donor (ED). Exogenously introduced ED fused to cAMP (ED-cAMP) competed with endogenously generated cAMP for binding to an anti-cAMP-specific antibody. Active β-galactosidase was formed by complementation of exogenous EA to any unbound ED-cAMP.
Cell lines were expanded from freezer stocks according to standard procedures. Cells were seeded in a total volume of 20 μL into white walled, 384-well microplates and incubated at 37° C. for the appropriate time prior to testing. cAMP modulation was determined using the DiscoverX HitHunter cAMP XS+ assay.
For agonist determination, cells were incubated with sample (in the presence of EC80 forskolin to induce response if measuring Gi secondary messenger signaling). Media was aspirated from cells and replaced with 15 μL 2:1 HBSS/10 mM Hepes:cAMP XS+ Ab reagent. Intermediate dilution of sample stocks was performed to generate 4×sample in assay buffer (optionally containing 4×EC80 forskolin). 5 μL of 4×sample was added to cells and incubated at 37° C. or room temperature for 30 or 60 minutes, as appropriate. Final assay vehicle concentration was 1%.

[9] = molecular target: 5-HT2A receptors (Homo sapiens (Human), UniProt P28223); experiment: 5-HT2A agonist and antagonist calcium assay (Calcium NWPLUS, FLIPR); assay type: cell-based
Protocol: The DiscoveRx Calcium NWPLUS Assay was used for detection of changes in intracellular calcium as signalled by an increase of dye fluorescence in cells expressing 5-HT2A receptors. Signal was measured on a fluorescent plate reader equipped with fluidic handling capable of detecting rapid changes in fluorescence upon compound stimulation.
To conduct the assay, cell lines were expanded from freezer stocks according to standard procedures. Cells (10,000 cells/well) were seeded in a total volume of 50 μL (200 cells/μL) into black-walled, clear-bottom, Poly-D-lysine coated 384-well microplates and incubated at 37-C for the appropriate time prior to testing. DMSO concentration for all readouts was ≤0.2%.
Assays were performed in 1×DyeLoading Buffer consisting of 1×Dye (DiscoverX, Calcium No WashPLUS kit, Catalog No. 90-0091), 1×Additive A and 2.5 mM Probenecid in HBSS/20 mM Hepes. Probenecid was prepared fresh. Cells were loaded with dye prior to testing. Media was aspirated from cells and replaced with 25 μL Dye Loading Buffer. Test compounds were assayed at 10 concentrations with the highest concentration either 30 or 10 μM and subsequent concentrations using a 0.33 dilution factor. Cells with testing sample were incubated for 45 minutes at 37° C. and then 20 minutes at room temperature. After dye loading, cells were removed from the incubator and 25 μL of 2×compound in HBSS/20 mM Hepes was added using a FLIPR Tetra (MDS). […]
Compound agonist activity was measured on a FLIPR Tetra. Calcium mobilization was monitored for 2 minutes with a 5 second baseline read. FLIPR read-Area under the curve was calculated for the two minute read. Compound activity was analyzed using CBIS data analysis suite (ChemInnovation, CA). Percentage activity was calculated as 100%×(mean RFU of test sample−mean RFU of vehicle control)/(mean MAX RFU control ligand −mean RFU of vehicle control). For antagonist mode assays, percentage inhibition was calculated as 100%×(1−(mean RFU of test sample−mean RFU of vehicle control)/(mean RFU of EC80 control−mean RFU of vehicle control)).

[10] = molecular target: 5-HT2B (Homo sapiens (Human), UniProt P41595); experiment: 5-HT2B agonist and antagonist calcium assay (Calcium NWPLUS, FLIPR); assay type: cell-based
Chain of 5-HT2B (P41595 whole entry, looked up, species assumed): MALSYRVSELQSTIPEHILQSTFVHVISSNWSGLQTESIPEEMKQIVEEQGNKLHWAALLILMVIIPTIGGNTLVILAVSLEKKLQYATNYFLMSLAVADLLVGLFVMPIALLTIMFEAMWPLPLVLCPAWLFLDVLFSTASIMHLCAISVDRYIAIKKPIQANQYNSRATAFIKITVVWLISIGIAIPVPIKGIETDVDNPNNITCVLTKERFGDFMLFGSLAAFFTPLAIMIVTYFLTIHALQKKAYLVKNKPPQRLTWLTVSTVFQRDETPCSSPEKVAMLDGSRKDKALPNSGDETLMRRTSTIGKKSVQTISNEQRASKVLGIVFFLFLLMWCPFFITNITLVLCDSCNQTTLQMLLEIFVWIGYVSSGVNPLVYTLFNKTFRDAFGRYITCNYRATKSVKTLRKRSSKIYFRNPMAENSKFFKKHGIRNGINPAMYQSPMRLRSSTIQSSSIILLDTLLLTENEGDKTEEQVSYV

[11] = Solubility assessment in FaSSIF V2 media; settings: room temp, scale up samples of racemic 5-MAPB salts
[12] = tested on: Caco-2; experiment: In vitro absorption assay, Caco-2 permeability; assay type: in vitro ADME; settings: for Permeability (Papp, 10^-6 cm/s) A-B / Permeability (Papp, 10^-6 cm/s) B-A: 10 μM
Protocol: (§1) The permeability of 10 μM RS-5-MAPB in Caco-2, MDCKII, and MDR1-MDCKII cell line assays was assessed (Table 6). Both the AB and BA directions with and without the addition of a Pgp-specific inhibitor (verapamil), a MRP1 inhibitor (MK571), and an ATP-binding cassette subfamily G member 2 (ABCG2/BCRP) inhibitor (KO143) were measured. Trials were repeated twice, and values averaged.

[13] = tested on: MDCKII; experiment: In vitro absorption assay, MDCKII permeability; assay type: in vitro ADME; settings: 10 μM, pH 7.4/7.4
Protocol: as §1

[14] = tested on: MDR1-MDCKII; experiment: In vitro absorption assay, MDR1-MDCKII permeability; assay type: in vitro ADME; settings: 10 μM
Protocol: as §1

[15] = tested on: healthy human individual; experiment: Human effects of non-racemic 5-MAPB, self-reported ratings (Good, Bad, Open); assay type: in vivo; settings: averaged from all sessions, 54 mg 5-MAPB HCl oral in two halves
Protocol: The effects of non-racemic 5-MAPB HCl were tested by a healthy human individual at four different ratios of enantiomers plus the racemate as a control: • 54 mg S and 0 mg R (100% S) • 47 mg Sand 7 mg R (87% S) • 36 mg S and 18 mg R (67% S) • 27 mg S and 27 mg R (50% S) • 7 mg S and 47 mg R (13% S)
Two trials were carried out at each ratio, except for 13% S where only one was conducted. Trials were at least 72 h apart.
5-MAPB HCl was dissolved in 1.5 ml distilled water and consumed in two halves, separated by 1 hour. Starting at 3 hours after administration, tablets of 250 mg ascorbic acid and capsules of 300 mg alpha lipoic acid were taken ad libitum (approximately every hour for a total of 4 administrations).
Measurements were made approximately every 2 hours until post 6 hours and the maximum ratings per session were analyzed. Additionally, an index of good drug effects versus emotional openness, calculated as (Open−Good)/(200, the theoretical maximum of Open+Good), was constructed at each time point and the maximum analyzed. In healthy volunteers, Good Ratings can be considered a predictor of abuse liability. Accordingly, this index can be used as an indicator of the balance of a therapeutic effect (emotional openness) vs abuse liability.
Historic data of two trials 50 mg RS-5-MAPB Cl from the same individual were also included in the analysis for comparison.

[16] = IC50 (appeared close to), lowest concentration too high for accurate estimate
[17] = EC50 DAT (Mean ± SEM, nM), CHO cells expressing hDAT
[18] = EC50 SERT (Mean ± SEM, nM), CHO cells expressing hSERT
[19] = SERT IC50 (μM), 2 nM [3H]imipramine

CC[C@H](Cc1ccc2occc2c1)NC (stereo in doubt) [Compound R-5-MBPB, 1-(benzofuran-5-yl)-N-methylbutan-2-amine]
IC50 [1]: 6330 nM
IC50 [2, 16]: ~0.949 µM
EC50 [3]: 49.5 ± 27.1 nM
IC50 [4]: 212 ± 36.2 nM

CC[C@@H](Cc1ccc2occc2c1)NC (stereo in doubt) [Compound S-5-MBPB, 1-(benzofuran-5-yl)-N-methylbutan-2-amine]
IC50 [5]: 2660 nM
IC50 [1]: 9980 nM
IC50 [2, 16]: ~0.0949 µM
EC50 [3]: 31.2 ± 14.3 nM
IC50 [4]: 124 ± 35.8 nM

CN[C@@H](C)Cc1ccc2occc2c1 [75% S-5-MAPB]
EC50 [6, 17]: 632 ± 113 nM
EC50 [7, 18]: 80 ± 7 nM

CN[C@H](C)Cc1ccc2occc2c1 [Compound R-5-MAPB, (R)-1-(benzofuran-5-yl)-N-methylpropan-2-amine]
Hill Coef. [8]: 1.13
EC50 ([8]; 5-HT1BR EC50 (μM)): 0.981 µM
EC50 ([8]; 5HT1B Agonist (μM)): 0.98 µM
EC50 [9]: 2400 nM
IC50 [9]: 5340 nM
IC50 [10]: 360 nM
IC50 [5]: 3940 nM
IC50 [1]: 4240 nM
IC50 [2, 19]: 2.7 µM
EC50 [3]: 29.3 ± 3.7 nM
EC50 [6, 17]: 1950 ± 401 nM
EC50 [7, 18]: 184 ± 3 nM
IC50 [4]: 150 ± 8.6 nM

CN[C@@H](C)Cc1ccc2occc2c1 [Compound S-5-MAPB, (S)-1-(benzofuran-5-yl)-N-methylpropan-2-amine]
Hill Coef. [8]: 1.08
EC50 ([8]; 5-HT1BR EC50 (μM)): 0.161 µM
EC50 ([8]; 5HT1B Agonist (μM)): 0.16 µM
IC50 [5]: 1290 nM
IC50 [2, 19]: 3.4 µM
EC50 [3]: 13 ± 1.2 nM
EC50 [6, 17]: 258 ± 99 nM
EC50 [7, 18]: 67 ± 15 nM
IC50 [4]: 60.4 ± 2.8 nM

CNC(C)Cc1ccc2occc2c1.Cl (stereo not drawn) [Pattern 1A, 5-MAPB hydrochloride]
Solubility [11]: >10000 µg/mL

Br.CNC(C)Cc1ccc2occc2c1 (stereo not drawn) [Pattern 2B]
Solubility [11]: >10000 µg/mL

CNC(C)Cc1ccc2occc2c1.O=C(O)/C=C\C(=O)O (stereo not drawn) [Pattern 10A]
Solubility [11]: >10000 µg/mL

CNC(C)Cc1ccc2occc2c1.Cl (stereo not drawn) [RS-5-MAPB]
Permeability (Papp, 10^-6 cm/s) A-B ([12]; Caco-2, pH 7.4/7.4): 81 10^-6 cm/s
Permeability (Papp, 10^-6 cm/s) B-A ([12]; Caco-2, pH 7.4/7.4): 29.1 10^-6 cm/s
Permeability (Papp, 10^-6 cm/s) A-B ([12]; Caco-2, pH 7.4/7.4 + KO143): 75.3 10^-6 cm/s
Permeability (Papp, 10^-6 cm/s) B-A ([12]; Caco-2, pH 7.4/7.4 + KO143): 14 10^-6 cm/s
Permeability (Papp, 10^-6 cm/s) A-B ([12]; Caco-2, pH 7.4/7.4 + verapamil): 37.6 10^-6 cm/s
Permeability (Papp, 10^-6 cm/s) B-A ([12]; Caco-2, pH 7.4/7.4 + verapamil): 23 10^-6 cm/s
absorption and transport (conclusion from permeability assays) ([12]; Caco-2, MDCKII and MDR1-MDCKII): well absorbed; also recorded: actively transported through a mechanism that was inhibited by verapamil
Permeability (Papp, 10^-6 cm/s) A-B [13]: 82.1 10^-6 cm/s
Permeability (Papp, 10^-6 cm/s) B-A [13]: 19.8 10^-6 cm/s
Permeability (Papp, 10^-6 cm/s) A-B ([14]; pH 7.4/7.4): 68.7 10^-6 cm/s
Permeability (Papp, 10^-6 cm/s) B-A ([14]; pH 7.4/7.4): 20.5 10^-6 cm/s
Permeability (Papp, 10^-6 cm/s) A-B ([14]; pH 7.4/7.4 + verapamil): 42.8 10^-6 cm/s
Permeability (Papp, 10^-6 cm/s) B-A ([14]; pH 7.4/7.4 + verapamil): 30.4 10^-6 cm/s
Bad ([15]; maximum 0-100 rating of bad drug effects): 10%
Open ([15]; maximum 0-100 rating of emotional openness): 45%
Good ([15]; maximum 0-100 rating of good drug effects): 50%
EC50 ([6]; read-out: EC50 DAT (Mean ± SEM), CHO cells expressing hDAT): 459 ± 48 nM
EC50 ([7]; read-out: EC50 SERT (Mean ± SEM), CHO cells expressing hSERT): 90 ± 16 nM
